Results as given in US11124845B2, “PSMA-based molecular-genetic reporter system” (THE JOHNS HOPKINS UNIVERSITY, priority 2014, dated 2021).

Assays:
hNIS = target: T1, hNIS (Homo sapiens, UniProt Q92911); assay: Dynamic PET in matrigel suspension model, hNIS reporter; assay type: in vivo; details: nude mice
T1 construct: expressed in transfected cells; host or cells: PC3-CAR cells infected in vitro with Ad-Track-hNIS (pAd-Track-CMV-NIS), implanted in matrigel into nude mice
T1 sequence (Q92911 1-643): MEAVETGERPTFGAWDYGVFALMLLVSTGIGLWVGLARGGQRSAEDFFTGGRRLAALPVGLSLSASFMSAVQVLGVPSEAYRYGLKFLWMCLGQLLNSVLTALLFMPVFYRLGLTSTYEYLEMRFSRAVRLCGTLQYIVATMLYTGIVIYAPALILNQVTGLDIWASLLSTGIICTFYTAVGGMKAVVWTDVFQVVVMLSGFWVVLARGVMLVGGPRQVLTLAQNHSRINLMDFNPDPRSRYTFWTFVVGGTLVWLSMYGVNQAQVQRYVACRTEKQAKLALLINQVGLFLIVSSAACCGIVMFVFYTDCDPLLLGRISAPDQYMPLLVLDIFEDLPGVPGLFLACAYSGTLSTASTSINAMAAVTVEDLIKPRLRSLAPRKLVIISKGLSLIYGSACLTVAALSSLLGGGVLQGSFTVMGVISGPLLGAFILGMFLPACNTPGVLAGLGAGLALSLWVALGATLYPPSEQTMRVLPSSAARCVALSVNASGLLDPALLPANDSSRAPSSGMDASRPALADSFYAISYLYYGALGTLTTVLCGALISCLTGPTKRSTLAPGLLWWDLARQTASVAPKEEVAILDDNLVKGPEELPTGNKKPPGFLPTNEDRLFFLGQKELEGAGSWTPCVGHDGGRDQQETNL
Method: (§1) Studies were performed according to protocols approved by the Animal Care and Use Committee at Johns Hopkins University. A matrigel suspension model was developed to enable imaging of similar numbers of cells in vivo. Four- to six-week-old athymic male nude mice (Harlan Laboratories Inc., Frederick, Md.) were used for all experiments. 4×10^6 infected cells were injected subcutaneously in the presence of Matrigel (BD Biosciences, Bedford, Mass.) at a 2:1 (cell:matrigel) ratio.
(§2) PET was performed for in vivo reporter comparison. […] [^124I]NaI was kindly provided by Dr. Jason Lewis (Memorial Sloan-Kettering Cancer Center, NY). Athymic nude mice contralaterally implanted with reporter or control expressing matrigel suspensions in the upper flanks were used for imaging. […] Mice were then placed in the prone position on the gantry of a GE eXplore VISTA small animal PET scanner (GE Healthcare Life Sciences, Pittsburgh, Pa.) and injected intravenously with ˜7.4 MBq (200 μCi) in 200 μL of PBS of each respective radiotracer. Images were acquired as a dynamic scan of 18 five-minute frames at 250 to 700 keV for ^18F and 400-700 keV for ^124I. Images were reconstructed using the FORE/2D-OSEM method (1 iteration, 16 subsets) and included correction for radioactive decay, scanner dead time, and scattered radiation. After PET imaging, the mobile mouse holder was placed on the gantry of an X-SPECT (Gamma Medica-Ideas, Salem, N.H.) small animal imaging device to acquire the corresponding CT. PET and CT data were co-registered using AMIDE software (sourceforge.net).
(§3) To compare reporter-probe systems in vivo, a matrigel suspension model was developed (FIG. 2). […] The contralateral cells masses were generally within 30% as measured by GFP imaging in vivo (FIG. 3).
(§4) The next day (48 hours after implantation), animals were subjected to a dynamic PET study whereby ˜7.4 MBq (200 μCi) of each respective radiotracer was administered intravenously and cellular uptake was quantified for a duration of 90 minutes. […]

[1] = system: MDA-MB-231 cell lines transiently transfected with full-length and truncations of PSMA; assay: In vitro radio uptake assay, cells transfected with non-viral PSMA vectors; assay type: cell-based; details: 24 hours after transfection, 1 μCi
Method: The basic expression vectors (FIG. 8A) were tested for the ability to uptake a radio-labeled PSMA-targeted molecule (^125I-YC27). […] Twenty-four hours after the transfection, cells were treated with 1 μCi of ^125I-YC27, washed twice and the uptake was measured.

HSV-sr39tk = assay: Dynamic PET in matrigel suspension model, HSV-sr39tk reporter; assay type: in vivo, herpes simplex virus; details: nude mice
Method: as §1, §2, §3, §4

[2] = PC3-CAR cells in matrigel, PET, SUV ratio

Q: `[124I-].[Na+]` [[^124I]NaI] was tested. Which “peak target-to-background ratio relative to control cells” value (hNIS; [2]) did it give?
A: 3.13±0.20

Q: What about the “peak target-to-background ratio relative to muscle” value (hNIS; [2]) of the same compound?
A: 4.96±0.65

Q: What about the “time after which signal-to-noise ratio greater than two (relative to muscle) could be detected” value (hNIS; dynamic PET) of the same compound?
A: 20 min

Q: For `O=C(O)CCC(NC(=O)NC(CCCCNC(=O)c1ccc([125I])cc1)C(=O)O)C(=O)O` (stereo not shown) [^125I-YC27, 2-[3-[1-carboxy-5-(4-[^125I]iodo-benzoylamino)-pentyl]-ureido]-pentanedioic acid], which “specific uptake of the substrate” value [1] is on record?
A: Only full-length and N-terminally truncated PSMA were able to specifically uptake the substrate

Q: `Nc1nc2c(ncn2CCC(CO)C[18F])c(=O)[nH]1` (stereo not shown) [FHBG, 9-(4-[^18F]Fluoro-3-[hydroxymethyl]butyl)guanine] was tested. Which “peak target-to-background ratio relative to control cells” value (HSV-sr39tk; [2]) did it give?
A: 2.81±0.27

Q: And the “peak target-to-background ratio relative to muscle” value (HSV-sr39tk; [2])?
A: 4.99±0.38

Q: What about the “time after which signal-to-noise ratio greater than two (relative to muscle) could be detected” value (HSV-sr39tk; dynamic PET) of the same compound?
A: 45 min
